We go through 12 compounds from US20230139171A1 (SITA Information Networking Computing UK Limited, priority 2019, published 2023).

Type in all cases: cell-based
For test [1], the target named is T1, human TLR8 (Homo sapiens, UniProt Q9NR97).
T1 construct: host or cells: HEK-Blue cells
T1 sequence (Q9NR97 27-1041): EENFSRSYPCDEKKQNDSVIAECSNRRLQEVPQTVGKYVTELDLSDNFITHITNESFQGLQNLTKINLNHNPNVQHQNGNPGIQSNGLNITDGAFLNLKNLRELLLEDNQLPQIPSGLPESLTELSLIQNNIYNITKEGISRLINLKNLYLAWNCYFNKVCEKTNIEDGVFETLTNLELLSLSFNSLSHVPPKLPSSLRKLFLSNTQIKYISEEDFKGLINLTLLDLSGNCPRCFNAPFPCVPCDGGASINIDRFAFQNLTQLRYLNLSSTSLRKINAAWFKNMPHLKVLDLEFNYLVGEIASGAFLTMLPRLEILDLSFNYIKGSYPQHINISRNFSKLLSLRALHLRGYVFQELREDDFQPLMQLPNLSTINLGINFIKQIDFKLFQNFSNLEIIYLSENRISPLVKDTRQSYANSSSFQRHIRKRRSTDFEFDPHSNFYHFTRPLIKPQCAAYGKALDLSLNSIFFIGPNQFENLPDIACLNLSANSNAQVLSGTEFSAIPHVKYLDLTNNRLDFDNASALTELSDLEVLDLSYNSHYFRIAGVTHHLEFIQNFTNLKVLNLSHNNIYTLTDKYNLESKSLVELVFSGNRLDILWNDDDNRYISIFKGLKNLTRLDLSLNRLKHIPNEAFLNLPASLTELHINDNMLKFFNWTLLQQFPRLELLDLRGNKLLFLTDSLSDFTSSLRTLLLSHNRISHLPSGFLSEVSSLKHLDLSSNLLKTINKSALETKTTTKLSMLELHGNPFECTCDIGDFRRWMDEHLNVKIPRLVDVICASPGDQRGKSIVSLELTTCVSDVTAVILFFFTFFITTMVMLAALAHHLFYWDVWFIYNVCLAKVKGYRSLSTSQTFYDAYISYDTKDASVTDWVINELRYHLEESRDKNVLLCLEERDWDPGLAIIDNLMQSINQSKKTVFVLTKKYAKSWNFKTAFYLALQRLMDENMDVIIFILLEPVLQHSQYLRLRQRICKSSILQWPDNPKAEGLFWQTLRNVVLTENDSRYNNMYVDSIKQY
Description: TLR8 inhibition reporter assay (HEK-Blue cells, SEAP reporter, R848 stimulation). The conditions noted are these: HEK-Blue cells overexpressing human TLR8, SEAP reporter, R848 15.9 μM; read-out: TLR8 IC50. The method in brief: (§1)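 HEK-Blue cells overexpressing human TLR7, TLR8 or TLR9 carry a SEAP reporter driven by NF-κB/AP-1 sites. Compounds (0.05 nM–50 μM) were preincubated 30 min at room temperature, then cells were stimulated with gardiquimod 7.5 μM (TLR7), R848 15.9 μM (TLR8) or ODN2006 5 nM (TLR9) for 22 h at 37 °C.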

Test [2] concerns the target T2, human TLR9 (Homo sapiens, UniProt Q9NR96).
T2 construct: host or cells: HEK-Blue cells
T2 sequence (Q9NR96 26-1032): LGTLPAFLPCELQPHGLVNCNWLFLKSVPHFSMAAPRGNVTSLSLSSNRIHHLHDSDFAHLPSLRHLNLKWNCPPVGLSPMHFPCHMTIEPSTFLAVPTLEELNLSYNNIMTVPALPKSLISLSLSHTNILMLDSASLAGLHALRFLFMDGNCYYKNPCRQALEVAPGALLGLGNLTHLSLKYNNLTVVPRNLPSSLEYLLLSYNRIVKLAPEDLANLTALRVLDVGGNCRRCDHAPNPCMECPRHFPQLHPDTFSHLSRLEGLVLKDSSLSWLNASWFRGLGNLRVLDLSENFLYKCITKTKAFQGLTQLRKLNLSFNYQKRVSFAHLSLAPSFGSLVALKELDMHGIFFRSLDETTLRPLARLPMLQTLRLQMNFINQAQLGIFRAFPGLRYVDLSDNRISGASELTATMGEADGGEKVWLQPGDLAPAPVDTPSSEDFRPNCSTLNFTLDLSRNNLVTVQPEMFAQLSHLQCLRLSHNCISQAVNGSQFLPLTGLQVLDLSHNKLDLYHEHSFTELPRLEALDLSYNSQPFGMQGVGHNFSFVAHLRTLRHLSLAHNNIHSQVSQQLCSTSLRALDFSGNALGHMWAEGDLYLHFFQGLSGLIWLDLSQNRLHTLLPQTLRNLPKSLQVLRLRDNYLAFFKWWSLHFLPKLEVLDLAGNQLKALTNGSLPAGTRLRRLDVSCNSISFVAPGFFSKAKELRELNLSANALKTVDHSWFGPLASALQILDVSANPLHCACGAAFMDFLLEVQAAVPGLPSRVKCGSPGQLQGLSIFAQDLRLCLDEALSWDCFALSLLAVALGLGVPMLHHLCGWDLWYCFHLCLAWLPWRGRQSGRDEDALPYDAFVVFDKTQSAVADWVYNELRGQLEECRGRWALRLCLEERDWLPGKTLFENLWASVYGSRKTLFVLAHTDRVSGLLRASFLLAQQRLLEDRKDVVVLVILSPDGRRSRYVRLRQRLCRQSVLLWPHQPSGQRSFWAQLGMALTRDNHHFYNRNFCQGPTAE
The test can be described thus: TLR9 inhibition reporter assay (HEK-Blue cells, SEAP reporter, ODN2006 stimulation). To be noted: HEK-Blue cells overexpressing human TLR9, SEAP reporter, ODN2006 5 nM. The method in brief:
as §1

The target of test [3] is T3, human TLR7 (Homo sapiens, UniProt Q9NYK1).
T3 construct: host or cells: HEK-Blue cells
T3 sequence (Q9NYK1 27-1049): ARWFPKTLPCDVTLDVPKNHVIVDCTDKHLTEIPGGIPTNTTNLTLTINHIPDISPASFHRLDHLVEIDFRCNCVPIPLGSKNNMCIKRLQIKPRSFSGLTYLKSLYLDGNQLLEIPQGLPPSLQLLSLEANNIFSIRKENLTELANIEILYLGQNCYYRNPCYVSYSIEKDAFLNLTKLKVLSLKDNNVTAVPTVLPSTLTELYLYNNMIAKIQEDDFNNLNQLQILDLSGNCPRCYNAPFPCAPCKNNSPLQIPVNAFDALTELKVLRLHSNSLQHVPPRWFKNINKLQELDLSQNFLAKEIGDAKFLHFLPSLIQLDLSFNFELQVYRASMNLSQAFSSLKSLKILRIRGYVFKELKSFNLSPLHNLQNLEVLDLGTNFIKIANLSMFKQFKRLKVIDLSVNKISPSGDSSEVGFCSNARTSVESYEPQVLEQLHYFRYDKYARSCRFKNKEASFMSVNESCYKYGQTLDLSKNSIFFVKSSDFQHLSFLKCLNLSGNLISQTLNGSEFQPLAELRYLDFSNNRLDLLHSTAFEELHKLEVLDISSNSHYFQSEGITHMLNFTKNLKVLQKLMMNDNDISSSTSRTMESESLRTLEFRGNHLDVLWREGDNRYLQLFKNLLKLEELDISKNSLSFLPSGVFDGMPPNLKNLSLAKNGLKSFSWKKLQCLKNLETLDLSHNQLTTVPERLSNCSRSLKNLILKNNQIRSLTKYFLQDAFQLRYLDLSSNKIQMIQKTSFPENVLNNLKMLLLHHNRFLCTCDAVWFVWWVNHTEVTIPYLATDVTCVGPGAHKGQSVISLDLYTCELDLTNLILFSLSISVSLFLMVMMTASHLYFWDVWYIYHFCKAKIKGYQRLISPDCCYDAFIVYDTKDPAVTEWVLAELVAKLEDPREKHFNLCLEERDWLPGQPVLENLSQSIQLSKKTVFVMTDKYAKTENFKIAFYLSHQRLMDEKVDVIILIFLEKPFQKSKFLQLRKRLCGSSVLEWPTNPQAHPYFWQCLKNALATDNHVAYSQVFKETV
The test can be described thus: TLR7 inhibition reporter assay (HEK-Blue cells, SEAP reporter, gardiquimod stimulation). The conditions noted are these: HEK-Blue cells overexpressing human TLR7, SEAP reporter, gardiquimod 7.5 μM; read-out: TLR7 IC50. In a few lines:
as §1

Consider `COc1cc(-c2[nH]c3sc(C4CCC(N(C)C(C)C)CC4)nc3c2C(C)C)cn2ncnc12` (single isomer, unassigned) [Example 88, N-isopropyl-4-(6-isopropyl-5-(8-methoxy-[1,2,4]triazolo[1,5-a]pyridin-6-yl)-4H-pyrrolo[3,2-d]thiazol-2-yl)-N-methylcyclohexan-1-amine], for which the IC50 was found to be 1.84 nM in test [1], 4450 nM in test [2] and 0.81 nM in test [3].

`COc1cc(-c2[nH]c3sc(C4CCC(N(C)C(C)C)CC4)nc3c2C(C)C)cn2ncnc12` (single isomer, unassigned) [Example 89, N-isopropyl-4-(6-isopropyl-5-(8-methoxy-[1,2,4]triazolo[1,5-a]pyridin-6-yl)-4H-pyrrolo[3,2-d]thiazol-2-yl)-N-methylcyclohexan-1-amine]: the values for the 50% inhibitory concentration (IC50) in test [1], in test [2] and in test [3] were 18.9 nM, 4100 nM and 1.48 nM, respectively.

For the compound `COc1cc(-c2[nH]c3sc(C4CCC(NC[C@@H](F)C(C)(C)O)CC4)nc3c2C(C)C)cn2ncnc12` (single isomer, unassigned) [Example 90], the IC50 in test [1] was determined as 1.13 nM; in test [2], 11100 nM; in test [3], 0.8 nM.

Consider `COc1cc(-c2[nH]c3sc(C4CCC(NC[C@@H](F)C(C)(C)O)CC4)nc3c2C(C)C)cn2ncnc12` (single isomer, unassigned) [Example 91], for which the IC50 in test [1] amounted to 8.12 nM; in test [2], 6720 nM; in test [3], 4.01 nM.

For `COc1cc(-c2[nH]c3sc(C4CCC(N)CC4)nc3c2C(C)C)cn2ncnc12` (single isomer, unassigned) [Example 92, 4-(6-isopropyl-5-(8-methoxy-[1,2,4]triazolo[1,5-a]pyridin-6-yl)-4H-pyrrolo[3,2-d]thiazol-2-yl)cyclohexan-1-amine], the IC50 was 2.34 nM in test [1], 4110 nM in test [2] and 0.31 nM in test [3].

On to `COc1cc(-c2[nH]c3sc(C4CCC(N)CC4)nc3c2C(C)C)cn2ncnc12` (single isomer, unassigned) [Example 93, 4-(6-isopropyl-5-(8-methoxy-[1,2,4]triazolo[1,5-a]pyridin-6-yl)-4H-pyrrolo[3,2-d]thiazol-2-yl)cyclohexan-1-amine], for which the IC50 in test [1] came to 15.6 nM; in test [2], 12000 nM; in test [3] it was 1.89 nM.

For `CCC1(NC2CCC(c3nc4c(C(C)C)c(-c5cc(OC)c6ncnn6c5)[nH]c4s3)CC2)COC1` (single isomer, unassigned) [Example 94, 3-ethyl-N-(4-(6-isopropyl-5-(8-methoxy-[1,2,4]triazolo[1,5-a]pyridin-6-yl)-4H-pyrrolo[3,2-d]thiazol-2-yl)cyclohexyl)oxetan-3-amine], the IC50 was found to be 3.14 nM in test [1], 40700 nM in test [2] and 1.94 nM in test [3].

Regarding `CCC1(NC2CCC(c3nc4c(C(C)C)c(-c5cc(OC)c6ncnn6c5)[nH]c4s3)CC2)COC1` (single isomer, unassigned) [Example 95, 3-ethyl-N-(4-(6-isopropyl-5-(8-methoxy-[1,2,4]triazolo[1,5-a]pyridin-6-yl)-4H-pyrrolo[3,2-d]thiazol-2-yl)cyclohexyl)oxetan-3-amine], the IC50 in test [1] was 23.8 nM; in test [2], 43200 nM; in test [3], 11.7 nM.

For `COc1cc(-c2[nH]c3sc(C4CCC(N5CC6(C5)CS(=O)(=O)C6)CC4)nc3c2C(C)C)cn2ncnc12` (single isomer, unassigned) [Example 96, 6-(4-(6-isopropyl-5-(8-methoxy-[1,2,4]triazolo[1,5-a]pyridin-6-yl)-4H-pyrrolo[3,2-d]thiazol-2-yl)cyclohexyl)-2-thia-6-azaspiro[3.3]heptane 2,2-dioxide], the figures for the 50% inhibitory concentration (IC50) in test [1], in test [2] and in test [3] were 0.98 nM, 7770 nM and 1.53 nM, respectively.

As for `COc1cc(-c2[nH]c3sc(C4CCC(N5CCCC5)CC4)nc3c2C(C)C)cn2ncnc12` (single isomer, unassigned) [Example 98, 6-isopropyl-5-(8-methoxy-[1,2,4]triazolo[1,5-a]pyridin-6-yl)-2-(4-(pyrrolidin-1-yl)cyclohexyl)-4H-pyrrolo[3,2-d]thiazole], the results for the IC50 in test [1], in test [2] and in test [3] were 1.37 nM, 2980 nM and 0.12 nM, respectively.

As for `COc1cc(-c2[nH]c3sc(C4CCC(N5CCCC5)CC4)nc3c2C(C)C)cn2ncnc12` (single isomer, unassigned) [Example 99, 6-isopropyl-5-(8-methoxy-[1,2,4]triazolo[1,5-a]pyridin-6-yl)-2-(4-(pyrrolidin-1-yl)cyclohexyl)-4H-pyrrolo[3,2-d]thiazole], the concentration for half-maximal inhibition (IC50) in test [1] was 36.7 nM; in test [2], 3610 nM; in test [3] it was 1.19 nM.

For `COc1cc(-c2[nH]c3sc(C4CCC(N5CC[C@@H](NC(C)=O)C5)CC4)nc3c2C(C)C)cn2ncnc12` (single isomer, unassigned) [Example 100], the IC50 in test [1] was determined as 114 nM; in test [2] it was 6400 nM; in test [3] it was 78.9 nM.
